# Test results reported in patent US7332615B2, “Hydrophilic analogs of 4,8-dihydrobenzodithiophene-4,8-diones as anticancer agents” (Industrial Technology Research Institute, priority 2004, dated 2008).
# Where two headings read alike, the source gives them in different places.
# Tests used:
# [1] = test system: ileocecal carcinoma (HCT-8); assay: Cytotoxicity Assays Method C, HCT-8; type: cell-based; settings: Homo sapiens, HCT-8, 72 h, read-out: IC50 HCT-8
# prostate cancer (PC-3) = assay: Cytotoxicity Assays Method C, PC-3; type: cell-based; settings: for IC50: 72 h, read-out: IC50 PC-3
# lung carcinoma (A-549) = assay: Cytotoxicity Assays Method C, A-549; type: cell-based; settings: Homo sapiens, A549, 72 h, read-out: IC50 A549
# [2] = test system: p-gp-expressing epidermoid carcinoma of the nasopharynx (KB-VIN); assay: Cytotoxicity Assays Method C, KB-VIN; type: cell-based; settings: for IC50: 50% reduction in cell number after 72 hr of incubation
# Source text: Cytotoxicity Assays Method C (KB, KB-VIN, AS49, HCT-8, PC-3) [K. H. Lee et. al. Planta Med. 54, 308-312 (1998), Monk A et. al. J. Natl. Cancer Inst. 83, 757-766 (1991).] The cell lines included epidermoid caninoma of the nasopharynx (KB), p-gp-expressing epidermoid caninoma of the nasopharynx (KB-VIN), lung carcinoma (A-549), ileocecal carinoma (HCT-8) and prostate cancer (PC-3) cell lines.
# [3] = test system: epidermoid carcinoma of the nasopharynx (KB); assay: Cytotoxicity Assays Method C, KB; type: cell-based; settings: 72 h, read-out: IC50 KB
# [4] = test system: Human promyeloid leukemia HL-60 cells; assay: Cytotoxicity Assays Method B (MTT proliferation assay), HL-60; type: cell-based; settings: Homo sapiens, read-out: IC50 (concentration at which 50% of the cells are inhibited from growing)
# Procedure: Cytotoxicity Assays Method B (HL-60) [H. M. Chen et al. Chin. Pharm. J. 53, 157-167 (2001)]
# Human promyeloid leukemia HL-60 cells were obtained from the American Type
# Culture Collection (Manassas, Va., USA) and the Culture Collection and Research Center(CCRC) (Tai wan, ROC). Human promyeloid leukemia HL-60 cells were cultured in suspension in RPMI-1640 medium (GIBCO, Grand Is land, USA), containing 10% fetal bovine se rum (GIBCO, Grand Is land, USA), 100 unit/mL penicillin, […] streptomycin and 1% L-glutamine at 37° C. in a humidified atmosphere of 5% CO2 in air. Cells were split every day to maintain the cell numbers between 2−5×10^5/mL. Cell numbers were assessed by the standard procedure of leukocyte counting using a hemocytometer and cell viability was checked by the ability of cells to exclude Trypan blue.
# Cellular proliferation was determined by the MTT [3-(4,5-dimethylthiazol-2-yl)-2,5-diphenyltetrazolium bromide] as say. Briefly, […] of MTT (5 mg/mL) was added to each well of 96-well plates containing 1×10^5 cells after treatment with different concentrations of samples for 4 days. The reaction was stopped after 2 h by adding […] of 0.04 N HCl in isopropanol and the OD570 nm was determined by a minicolorimetric reader. Each concentration treatment was performed in triplicate.
# HT-29 = assay: Cytotoxicity Assays Method A (alamarBlue anti-proliferative assay), HT-29; type: cell-based
# Source text: (§1) Cytotoxicity Assays Method A (HUVEC, MCF-7, HT-29, Hep 3B and NCl-H460) [S. A. Ahmed, R. M. Gogal Jr., and J. E. Walsh, Journal of Immunological Methods 170: 211-224, (1994): M. R. Boyd, Status of the NCl preclinical antitumor drug discovery screen. (Published by J. B. Lippincoft Company, Philadelphia, Pa. 19105, USA) Principles & Practices of Oncology Updates 3 # 10: 1-12, (1989); M. R. Boyd, et al. Data display and analysis strategies for the NCl disease-oriented in vitro antitumor drug screen. In: Cytotoxic anti-cancer drugs: models and concepts for drug discovery and development. Boston: Kluwer Academic, Pages; 11-34, (1992)]
# (§2) The test compounds were dissolved in 100% DMSO and then diluted with sterile distilled water to obtain initial working solutions of 20000, 2000, 200, 20 and 2 μM in 80% DMSO. A 200 fold dilution was further made in culture media to generate final assay concentrations of 100, 10, 1, 0.1 and 0.01 μM in 0.4% DMSO.
# (§3) Aliquots of 100 μl of cell suspension (about 1.5-3.0×10^3/well) were placed in 96-well microtiter plates in an atmosphere of 5% CO2 at 37° C. After 24 hours, 100 μl of growth medium and 1 μl of test solution or vehicle (80% DMSO) were added respectively per well in duplicate for an additional 72-hour incubation. Thus, the final concentration of DMSO was 0.4%. The test compounds, IIa-1, IIb-1 and VII-1 were evaluated at concentrations of 100, 10, 1, 0.1 and 0.01 μM. At the end of incubation, 20 μl of alamarBlue 90% reagent was added to each well for another 6-hour incubation before detection of cell viability by fluorescent intensity. Fluorescent intensity was measured using a Spectraflour Plus plate reader with excitation at 530 nm and emission at 590 nm.
# (§4) The measured results was calculated by the following formula: PG(%)=100×(Mean Ftest−Mean Ftime0)/(Mean Fctrl−Mean Ftime0)] If(Mean Ftest−Mean Ftime0)<0, then PG(%)=100×(Mean Ftest−Mean Ftime0)/(Mean Ftime0−Mean Fblank) wherein PG represents percent growth;
# (§5) A decrease of 50% or more (≧50%) in fluorescent intensity relative to the vehicle-treated control indicates significant cytostatic or cytotoxic activity, and semi-quantitative values for IC50, TGI and LC50 were then determined by nonlinear regression using GraphPad Prism (GraphPad Software, USA).
# (§6) IC50 (50% Inhibition Concentration); Test compound concentration where the increase from times in the number or mass of treated cells was only 50% as much as the corresponding increase in the vehicle-control at the end of experiment.
# (§7) TGI (Total Growth Inhibition): Test compound concentration where the number or mass of treated cells at the end of experiment was equal to that at time0.
# (§8) LC50 (50% Lethal Concentration): Test compound concentration where the number or mass of treated cells at the end of experiment was half that at time.
# (§9) The assays were used to detect changes in cell proliferation based on the ability of viable cells to cause alamarBlue to change from its oxidized to a reduced form. With the results obtained from the alamarBlue reaction, cell proliferation can be quantified and metabolic activity of viable cell can be examined.
# (§10) The succinate derivatives of compounds IIa-1, IIb-1 and VII-1 were tested for possible effect on the proliferation of four human tumor cell lines ˜MCF-7 (breast), HT-29 (colon), Hep3B (liver), and NCl—H 460 (lung) as well as one human umbilical vein endothelial cell (HUVEC) at assay concentration from 0.01 to 100 μM, through serial 10-fold dilution.
# MCF-7 = assay: Cytotoxicity Assays Method A (alamarBlue anti-proliferative assay), MCF-7; type: cell-based
# Source text: as §1, §2, §3, §4, §5, §6, §7, §8, §9, §10
# NCI-H460 = assay: Cytotoxicity Assays Method A (alamarBlue anti-proliferative assay), NCI-H460; type: cell-based
# Source text: as §1, §2, §3, §4, §5, §6, §7, §8, §9, §10
# Hep 3B = assay: Cytotoxicity Assays Method A (alamarBlue anti-proliferative assay), Hep 3B; type: cell-based
# Source text: as §1, §2, §3, §4, §5, §6, §7, §8, §9, §10
# HUVEC = assay: Cytotoxicity Assays Method A (alamarBlue anti-proliferative assay), HUVEC; type: cell-based
# Source text: as §1, §2, §3, §4, §5, §6, §7, §8, §9, §10
# [5] = as above; type: cell-based; settings: human, HUVEC (human umbilical vein endothelial cells), 72-hour incubation, alamarBlue
# Source text: as §1, §2, §3, §4, §5, §6, §7, §8, §9, §10
smiles,measurement,setting,value
"O=C(O)CCCC(=O)OCc1cc2c(s1)C(=O)c1sccc1C2=O [IIa-2, Mono-[1-(4,8-dioxo-4,8-dihydrobenzo[1,2-b:5,4-b′]dithiophen-2-yl)-methyl]pentanedioate]",IC50,[1],1660 nM
same,IC50,prostate cancer (PC-3),750 nM
same,IC50,lung carcinoma (A-549),2080 nM
same,IC50,"[2]; Homo sapiens, KBVIN, 72 h",1390 nM
same,melting point,,220 °C (dec.)
same,IC50,[3],2220 nM
same,IC50,"[4]; 96 h, HL-60, MTT, treatment for 4 days",700 nM
"CC(OC(=O)CCC(=O)O)c1cc2c(s1)C(=O)c1ccsc1C2=O (stereo not drawn) [VII-1, Mono-[1-(4,8-dioxo-4,8-dihydroxybenzo[1,2-b;4,5-b′]dithiophen-2-yl)-ethyl]succinate]",IC50,[1],420 nM
same,TGI (Total growth Inhibition),"HT-29; HT-29, 72-hour incubation, alamarBlue",38000 nM
same,activity against HT-29 (in words),"HT-29; HT-29, summary of Table 1",moderate activity
same,IC50,"HT-29; Homo sapiens, HT-29, 72 h, read-out: IC50 (50% Inhibition Concentration)",4500 nM
same,LC50 (50% lethal concentration),"HT-29; Homo sapiens, HT-29, 72-hour incubation, alamarBlue",> 100000 nM
same,IC50,prostate cancer (PC-3),160 nM
same,activity against the androgen-insensitive prostate cancer cell line PC-3 (in words),"prostate cancer (PC-3); PC-3, summary of Table 3",potent activity
same,IC50,lung carcinoma (A-549),470 nM
same,IC50,"MCF-7; Homo sapiens, MCF7, 72 h, read-out: IC50 (50% Inhibition Concentration)",960 nM
same,CC50,"MCF-7; Homo sapiens, MCF7, MCF-7, 72-hour incubation, alamarBlue, read-out: LC50 (50% Lethal Concentration)",31000 nM
same,TGI (Total growth Inhibition),"MCF-7; MCF-7, 72-hour incubation, alamarBlue",5500 nM
same,cytotoxicity against MCF-7 (in words),"MCF-7; MCF-7, summary of Table 1",significant cytotoxicity
same,IC50,[2],220 nM
same,activity against the MDR cell line KB-VIN (in words),[2]; summary of Table 3,potent activity
same,IC50,"NCI-H460; Homo sapiens, NCI-H460, 72 h, read-out: IC50 (50% Inhibition Concentration)",410 nM
same,CC50,"NCI-H460; Homo sapiens, NCI-H460, 72-hour incubation, alamarBlue, read-out: LC50 (50% Lethal Concentration)",3000 nM
same,TGI (Total growth Inhibition),"NCI-H460; NCI-H460, 72-hour incubation, alamarBlue",1100 nM
same,cytotoxicity against Hep3B (in words),"Hep 3B; Hep3B, summary of Table 1",significant cytotoxicity
same,TGI (Total growth Inhibition),"Hep 3B; Hep-3B, 72-hour incubation, alamarBlue",1900 nM
same,IC50,"Hep 3B; Homo sapiens, Hep3B, 72 h, read-out: IC50 (50% Inhibition Concentration)",1000 nM
same,CC50,"Hep 3B; Homo sapiens, Hep3B, Hep-3B, 72-hour incubation, alamarBlue, read-out: LC50 (50% Lethal Concentration)",3400 nM
same,IC50,[3],190 nM
same,TGI (Total growth Inhibition),"HUVEC; 72-hour incubation, alamarBlue",57000 nM
same,IC50,"HUVEC; Homo sapiens, 72 h, read-out: IC50 (50% Inhibition Concentration)",11000 nM
same,LC50 (50% lethal concentration) at 72 h,[5],> 100000 nM
same,IC50,"[4]; HL-60, 96 h",260 nM
